Experimental findings from patent US10435398B2, “Oxazole orexin receptor antagonists” (MERCK SHARP & DOHME CORP., priority 2014, dated 2019) are described below.

For one test, the target named is human orexin-1 receptor (Homo sapiens (Human), UniProt O43613). The test is described as follows: FLIPR Ca2+ Flux Assay, hOX1R. It counts as cell-based. As to conditions: CHO cells expressing human orexin-1 receptor; agonist 70 pM Ala-6,12 human orexin-A. The procedure: (§1) The utility of the compounds in accordance with the present invention as orexin receptor OX1R and/or OX2R antagonists may be readily determined without undue experimentation by methodology well known in the art, including the “FLIPR Ca^2+ Flux Assay” (Okumura et al., Biochem. Biophys. Res. Comm. 280:976-981, 2001). In a typical experiment the OX1 and OX2 receptor antagonistic activity of the compounds of the present invention was determined in accordance with the following experimental method. For intracellular calcium measurements, Chinese hamster ovary (CHO) cells expressing the rat or human orexin-1 receptor or the human orexin-2 receptor, are grown in Iscove's modified DMEM containing 2 mM L-glutamine, […], 1% hypoxanthine-thymidine supplement, 100 U/ml penicillin, 100 μg/ml streptomycin and 10% heat-inactivated fetal calf serum (FCS). The cells are seeded at 20,000 cells/well into Becton-Dickinson black 384-well clear bottom sterile plates coated with poly-D-lysine. All reagents were from GIBCO-Invitrogen Corp. The seeded plates are incubated overnight at 37° C. and 5% CO2. Ala-6,12 human orexin-A as the agonist is prepared as a 1 mM stock solution in 1% bovine serum albumin (BSA) and diluted in assay buffer (HBSS containing 20 mM HEPES, 0.1% BSA and 2.5 mM probenecid, pH7.4) for use in the assay at a final concentration of 70 pM. Test compounds are prepared as 10 mM stock solution in DMSO, then diluted in 384-well plates, first in DMSO, then assay buffer. On the day of the assay, cells are washed 3 times with 100 μl assay buffer and then incubated for 60 min (37° C., 5% CO2) in 60 μl assay buffer containing 1 μM Fluo-4AM ester, 0.02% pluronic acid, and 1% BSA. The dye loading solution is then aspirated and cells are washed 3 times with 100 μl assay buffer. 30 μl of that same buffer is left in each well. Within the Fluorescent Imaging Plate Reader (FLIPR, Molecular Devices), test compounds are added to the plate in a volume of 25 μl, incubated for 5 min and finally 25 μl of agonist is added. Fluorescence is measured for each well at 1 second intervals for 5 minutes and the height of each fluorescence peak is compared to the height of the fluorescence peak induced by 70 pM Ala-6,12 orexin-A with buffer in place of antagonist. For each antagonist, IC50 value (the concentration of compound needed to inhibit 50% of the agonist response) is determined. Alternatively, compound potency can be assessed by a radioligand binding assay (described in Bergman et. al. Bioorg. Med. Chem. Lett. 2008, 18, 1425-1430) in which the inhibition constant (Ki) is determined in membranes prepared from CHO cells expressing either the OX1 or OX2 receptor. The intrinsic orexin receptor antagonist activity of a compound which may be used in the present invention may be determined by these assays.
Sequence of human orexin-1 receptor (O43613 whole entry): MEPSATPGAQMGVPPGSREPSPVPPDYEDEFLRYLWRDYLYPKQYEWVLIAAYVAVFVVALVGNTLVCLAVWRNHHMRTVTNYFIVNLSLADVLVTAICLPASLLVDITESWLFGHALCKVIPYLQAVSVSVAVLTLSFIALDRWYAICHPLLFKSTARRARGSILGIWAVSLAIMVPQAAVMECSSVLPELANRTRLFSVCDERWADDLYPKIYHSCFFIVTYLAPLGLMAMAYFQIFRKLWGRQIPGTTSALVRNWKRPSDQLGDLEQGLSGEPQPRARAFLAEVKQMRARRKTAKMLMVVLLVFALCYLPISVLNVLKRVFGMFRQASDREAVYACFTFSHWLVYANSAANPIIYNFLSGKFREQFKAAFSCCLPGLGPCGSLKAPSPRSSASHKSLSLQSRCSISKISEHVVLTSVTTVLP
(In general: Calcium assays in cells follow changes in intracellular calcium, usually with a dye or a luminescent sensor.)

The next test has as its target human orexin-2 receptor (Homo sapiens (Human), UniProt O43614). Put plainly: FLIPR Ca2+ Flux Assay, hOX2R. In kind it is cell-based. Conditions: CHO cells expressing human orexin-2 receptor; agonist 70 pM Ala-6,12 human orexin-A. How it is done:
as §1

What is called IC50 is the concentration that inhibits the measured activity by half. A high value points to weaker potency.

Sequence of human orexin-2 receptor (O43614 whole entry): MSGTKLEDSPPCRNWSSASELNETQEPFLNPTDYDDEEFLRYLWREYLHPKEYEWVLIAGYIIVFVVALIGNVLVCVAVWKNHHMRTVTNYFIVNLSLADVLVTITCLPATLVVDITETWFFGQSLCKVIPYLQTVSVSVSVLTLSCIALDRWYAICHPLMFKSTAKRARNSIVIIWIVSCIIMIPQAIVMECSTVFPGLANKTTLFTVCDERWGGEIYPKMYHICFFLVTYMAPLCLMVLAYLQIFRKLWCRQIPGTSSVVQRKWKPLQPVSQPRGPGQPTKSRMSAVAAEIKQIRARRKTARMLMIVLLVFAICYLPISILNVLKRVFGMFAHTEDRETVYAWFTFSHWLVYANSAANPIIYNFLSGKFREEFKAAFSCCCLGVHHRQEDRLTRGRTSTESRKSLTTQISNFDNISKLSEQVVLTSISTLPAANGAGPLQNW

In the case of `C=CCN(CCc1nc(C(C)(C)O)c(C)o1)C(=O)c1ccccc1-n1nccn1` [Example 21, N-{2-[4-(1-Hydroxy-1-methylethyl)-5-methyl-1,3-oxazol-2-yl]ethyl}-N-prop-2-en-1-yl-2-(2H-1,2,3-triazol-2-yl)benzamide], the IC50 at human orexin-1 receptor turned out to be 1010 nM; at human orexin-2 receptor, 19 nM.

As to `Cc1oc(CCN(CCO)C(=O)c2ccccc2-n2nccn2)nc1C(C)(C)O` [Example 28, N-(2-hydroxyethyl)-N-(2-(4-(2-hydroxypropan-2-yl)-5-methyloxazol-2-yl)ethyl)-2-(2H-1,2,3-triazol-2-yl)benzamide], the IC50 at human orexin-1 receptor was more than 10000 nM; on human orexin-2 receptor it was 98 nM.

Regarding `CCN(CCc1nc(C(C)(C)O)c(C)o1)C(=O)c1ccc(F)cc1-n1nccn1` [Example 4, N-Ethyl-4-fluoro-N-{2-[4-(1-hydroxy-1-methylethyl)-5-methyl-1,3-oxazol-2-yl]ethyl}-2-(2H-1,2,3-triazol-2-yl)benzamide], the IC50 was more than 10000 nM at human orexin-1 receptor and 48 nM on human orexin-2 receptor.

With `CCN(CCc1nc(C(C)(C)O)c(C)o1)C(=O)c1cccc(C)c1-n1nccn1` [Example 2, N-Ethyl-N-{2-[4-(1-hydroxy-1-methylethyl)-5-methyl-1,3-oxazol-2-yl]ethyl}-3-methyl-2-(2H-1,2,3-triazol-2-yl)benzamide], the IC50 at human orexin-1 receptor was more than 10000 nM; at human orexin-2 receptor, 54 nM.

As for `Cc1oc(CCN(C)C(=O)c2ccccc2-n2nccn2)nc1C(C)(C)O` [Example 30, N-(2-(4-(2-Hydroxypropan-2-yl)-5-methyloxazol-2-yl)ethyl)-N-methyl-2-(2H-1,2,3-triazol-2-yl)benzamide], the results for the IC50 at human orexin-1 receptor and at human orexin-2 receptor were more than 10000 nM and 390 nM, respectively.

Take `Cc1oc(CCN(C(=O)c2ccccc2-n2nccn2)C(C)C)nc1C(C)(C)O` [Example 25, N-{2-[4-(1-Hydroxy-1-methylethyl)-5-methyl-1,3-oxazol-2-yl]ethyl}-N-(1-methylethyl)-2-(2H-1,2,3-triazol-2-yl)benzamide]: the IC50 was more than 10000 nM at human orexin-1 receptor and 152 nM on human orexin-2 receptor.

`Cc1oc(CCN(CCCO)C(=O)c2ccccc2-n2nccn2)nc1C(C)(C)O` [Example 27, N-{2-[4-(1-Hydroxy-1-methylethyl)-5-methyl-1,3-oxazol-2-yl]ethyl}-N-(3-hydroxypropyl)-2-(2H-1,2,3-triazol-2-yl)benzamide]: the IC50 at human orexin-1 receptor was more than 10000 nM; on human orexin-2 receptor, 304 nM.

Consider `CCN(CCc1nc(C(C)(C)O)c(C)o1)C(=O)c1cccnc1OCC(F)(F)F` [Example 13, N-Ethyl-N-{2-[4-(1-hydroxy-1-methylethyl)-5-methyl-1,3-oxazol-2-yl]ethyl}-2-(2,2,2-trifluoroethoxy)pyridine-3-carboxamide], for which the IC50 on human orexin-1 receptor is more than 10000 nM; at human orexin-2 receptor it was 98 nM.

As to `COCCN(CCc1nc(C(C)(C)O)c(C)o1)C(=O)c1ccccc1-n1nccn1` [Example 29, N-(2-(4-(2-Hydroxypropan-2-yl)-5-methyloxazol-2-yl)ethyl)-N-(2-methoxyethyl)-2-(2H-1,2,3-triazol-2-yl)benzamide], the IC50 on human orexin-1 receptor was more than 10000 nM; at human orexin-2 receptor, 19 nM.

For `CCN(CCc1nc(C(C)(C)O)c(C)o1)C(=O)c1ccccc1C1CC1` [Example 5, 2-Cyclopropyl-N-ethyl-N-{2-[4-(1-hydroxy-1-methylethyl)-5-methyl-1,3-oxazol-2-yl]ethyl}benzamide], the figures for the IC50 on human orexin-1 receptor and on human orexin-2 receptor were more than 10000 nM and 387 nM, respectively.

Regarding `CCN(CCc1nc(C(C)(C)O)c(C)o1)C(=O)c1cccnc1OCC(F)F` [Example 10, 2-(2,2-difluoroethoxy)-N-ethyl-N-{2-[4-(1-hydroxy-1-methylethyl)-5-methyl-1,3-oxazol-2-yl]ethyl}pyridine-3-carboxamide], the figures for the IC50 on human orexin-1 receptor and at human orexin-2 receptor were more than 10000 nM and 224 nM, respectively.

Take `CCCN(CCc1nc(C(C)(C)O)c(C)o1)C(=O)c1ccccc1-n1nccn1` [Example 22, N-{2-[4-(1-Hydroxy-1-methylethyl)-5-methyl-1,3-oxazol-2-yl]ethyl}-N-propyl-2-(2H-1,2,3-triazol-2-yl)benzamide]: the values for the IC50 on human orexin-1 receptor and on human orexin-2 receptor were 2370 nM and 19 nM, respectively.

On to `CCN(CCc1nc(C(C)(C)O)c(C)o1)C(=O)c1ccccc1CC(F)(F)F` [Example 14, N-Ethyl-N-{2-[4-(1-hydroxy-1-methylethyl)-5-methyl-1,3-oxazol-2-yl]ethyl}-2-(2,2,2-trifluoroethyl)benzamide], for which the IC50 is more than 10000 nM on human orexin-1 receptor and 211 nM on human orexin-2 receptor.

Consider `CCN(CCc1nc(C(C)(C)O)c(C)o1)C(=O)c1ccccc1-n1cccn1` [Example 17, N-Ethyl-N-{2-[4-(1-hydroxy-1-methylethyl)-5-methyl-1,3-oxazol-2-yl]ethyl}-2-(1H-pyrazol-1-yl)benzamide], for which the results for the IC50 on human orexin-1 receptor and on human orexin-2 receptor were more than 10000 nM and 292 nM, respectively.

Turning to `CCN(CCc1nc(C(C)(C)O)c(C)o1)C(=O)c1sccc1-n1nccn1` [Example 10d, N-ethyl-N-{2-[4-(1-hydroxy-1-methylethyl)-5-methyl-1,3-oxazol-2-yl]ethyl}-3-(2H-1,2,3-triazol-2-yl)thiophene-2-carboxamide], the IC50 on human orexin-1 receptor was more than 10000 nM; at human orexin-2 receptor, 435 nM.

Consider `CCN(CCc1nc(C(C)(C)O)c(C)o1)C(=O)c1ccccc1C1(C(F)F)CC1` [Example 18b, 2-(1-(difluoro-methyl)cyclopropyl)-N-ethyl-N-(2-(4-(2-hydroxypropan-2-yl)-5-methyloxazol-2-yl)ethyl)benzamide], for which the IC50 was more than 10000 nM on human orexin-1 receptor and 145 nM at human orexin-2 receptor.

On to `CCN(CCc1nc(C(C)(C)O)c(C)o1)C(=O)c1ccccc1C1(C#N)CC1` [Example 10b, 2-(1-cyanocyclopropyl)-N-ethyl-N-{2-[4-(1-hydroxy-1-methylethyl)-5-methyl-1,3-oxazol-2-yl]ethyl}benzamide], for which the IC50 worked out at 1760 nM on human orexin-1 receptor and 26 nM at human orexin-2 receptor.

As for `CCN(CCc1nc(C(C)(C)O)c(C)o1)C(=O)c1ccccc1-n1nccn1` [Example 11, N-Ethyl-N-{2-[4-(1-hydroxy-1-methylethyl)-5-methyl-1,3-oxazol-2-yl]ethyl}-2-(2H-1,2,3-triazol-2-yl)benzamide], the IC50 turned out to be 2590 nM on human orexin-1 receptor and 27 nM on human orexin-2 receptor.

With `COCCCN(CCc1nc(C(C)(C)O)c(C)o1)C(=O)c1ccccc1-n1nccn1` [Example 33, N-(2-(4-(2-Hydroxypropan-2-yl)-5-methyloxazol-2-yl)ethyl)-N-(3-methoxypropyl)-2-(2H-1,2,3-triazol-2-yl)benzamide], the results for the IC50 at human orexin-1 receptor and on human orexin-2 receptor were more than 10000 nM and 119 nM, respectively.

Turning to `CCN(CCc1nc(C(C)(O)CC)c(C)o1)C(=O)c1ccccc1-n1nccn1` (stereo not drawn) [Example 19, N-Ethyl-N-{2-[4-(1-hydroxy-1-methylpropyl)-5-methyl-1,3-oxazol-2-yl]ethyl}-2-(2H-1,2,3-triazol-2-yl)benzamide], the IC50 at human orexin-1 receptor amounted to 3380 nM; on human orexin-2 receptor, 12 nM.

For the molecule `CCOc1ccccc1C(=O)N(CC)CCc1nc(C(C)(C)O)c(C)o1` [Example 15, 2-Ethoxy-N-ethyl-N-{2-[4-(1-hydroxy-1-methylethyl)-5-methyl-1,3-oxazol-2-yl]ethyl}benzamide], the results for the concentration for half-maximal inhibition (IC50) at human orexin-1 receptor and on human orexin-2 receptor were more than 10000 nM and 223 nM, respectively.

Consider `CCN(CCc1nc(C(C)(C)O)c(C)o1)C(=O)c1cc(F)ccc1-n1nccn1` [Example 7, N-Ethyl-5-fluoro-N-{2-[4-(1-hydroxy-1-methylethyl)-5-methyl-1,3-oxazol-2-yl]ethyl}-2-(2H-1,2,3-triazol-2-yl)benzamide], for which the IC50 on human orexin-1 receptor is more than 10000 nM; on human orexin-2 receptor, 62 nM.

Consider `CCN(CCc1nc(C(C)(C)O)c(C)o1)C(=O)c1cccnc1-n1cccn1` [Example 6, N-Ethyl-N-{2-[4-(1-hydroxy-1-methylethyl)-5-methyl-1,3-oxazol-2-yl]ethyl}-2-(1H-pyrazol-1-yl)pyridine-3-carboxamide], for which the IC50 was more than 10000 nM on human orexin-1 receptor and 101 nM at human orexin-2 receptor.

In the case of `Cc1oc(CCN(CC(F)F)C(=O)c2ccccc2-n2nccn2)nc1C(C)(C)O` [Example 24, N-(2,2-Difluoroethyl)-N-{2-[4-(1-hydroxy-1-methylethyl)-5-methyl-1,3-oxazol-2-yl]ethyl}-2-(2H-1,2,3-triazol-2-yl)benzamide], the IC50 at human orexin-1 receptor was more than 10000 nM; at human orexin-2 receptor, 68 nM.
